Where a name gives a salt, the structure may show the parent alone. Read-outs that look alike come from different tables or passages of the source. Where a SMILES comes first, the peptide text is derived from it. [ ]: non-standard residue; d: D form. Nle = CCCC[C@H](N)C(=O)O
Columns and labels:
[1] = target: T1, SARS-CoV-2 PLpro (nsp3 1564–1878) (Severe acute respiratory syndrome coronavirus 2, UniProt P0DTD1); test: biochemical; design: FRET-quenched peptide (Pro3) cleavage by PLpro, 10 min pre-incubation, slope over 20 min, normalised to no-compound control; settings: low concentration screen, read-out: % of control remaining
[2] = target: T1, SARS-CoV-2 PLpro (nsp3 1564–1878); test: biochemical; design: FRET-quenched peptide (Pro3) cleavage by PLpro, 10 min pre-incubation, slope over 20 min, normalised to no-compound control; settings: high concentration screen, read-out: % of control remaining

Work on Cc1sc(C)c(C(=O)NC2(c3ccc(C(=O)O)cc3)CC2)c1Cc1ccc(C(F)(F)F)cc1 [MK-2894] yielded a remaining activity at 1.25 µM ([1]; Well no.=7101) of 94.3% and a remaining activity at 3.75 µM ([2]; Well no.=7101) of 90.7%.

Work on CCCc1c(OCCCCc2nnn[nH]2)ccc(C(C)=O)c1O [LY-171,883] yielded a remaining activity at 1.25 µM ([1]; Well no.=835) of 104% and a remaining activity at 3.75 µM ([2]; Well no.=835) of 106%.

NCCC[C@](N)(C(=O)O)C(F)F (racemic) [DL-alpha-Difluoromethylornithine hydrochloride] gave a remaining activity at 1.25 µM ([1]; Well no.=500) of 103% and a remaining activity at 3.75 µM ([2]; Well no.=500) of 104%.

With NC(CCCCCP(=O)(O)O)C(=O)O (racemic) the remaining activity at 1.25 µM ([1]; Well no.=17) was 100% and the remaining activity at 3.75 µM ([2]; Well no.=17) was 97.5%.

For CCOc1cc([C@@H](CS(C)(=O)=O)N2C(=O)c3cccc(NC(C)=O)c3C2=O)ccc1OC [Apremilast (CC-10004)], the remaining activity at 1.25 µM ([1]; Well no.=5218) was 97.8% and the remaining activity at 3.75 µM ([2]; Well no.=5218) was 99.8%.

With CN1CCN(c2nc3ccccc3nc2Cl)CC1 [VUF 10166] the remaining activity at 1.25 µM ([1]; Well no.=4831) was 99.1% and the remaining activity at 3.75 µM ([2]; Well no.=4831) was 103%.

CCN(CC)CC(=O)Nc1c(C)cccc1C [Lidocaine hydrochloride] showed a remaining activity at 1.25 µM ([1]; Well no.=883) of 104% and a remaining activity at 3.75 µM ([2]; Well no.=883) of 108%.

Cc1cc(N2CCN([C@@H]3CN[C@H](C(=O)N4CCSC4)C3)CC2)n(-c2ccccc2)n1 [Teneligliptin hydrobromide] was tested, and the remaining activity at 1.25 µM ([1]; Well no.=8110) was 107% and the remaining activity at 3.75 µM ([2]; Well no.=8110) was 106%.

CCNC(=O)[C@@H]1CCCN1C(=O)[C@H](CCCN=C(N)N)NC(=O)[C@H](CC(C)C)NC(=O)[C@@H](C)NC(=O)[C@H](Cc1ccc(O)cc1)NC(=O)[C@H](CO)NC(=O)[C@H](Cc1c[nH]c2ccccc12)NC(=O)[C@H](Cc1cnc[nH]1)NC(=O)[C@@H]1CCC(=O)N1 [Alarelin (Acetate)] showed a remaining activity at 1.25 µM ([1]; Well no.=8383) of 98.8% and a remaining activity at 3.75 µM ([2]; Well no.=8383) of 97%.

CCCNS(=O)(=O)Nc1ncnc(OCCOc2ncc(Br)cn2)c1-c1ccc(Br)cc1 [Macitentan] was tested, and the remaining activity at 1.25 µM ([1]; Well no.=4830) was 97.6%, the remaining activity at 1.25 µM ([1]; Well no.=8253) was 97.3% and the remaining activity at 3.75 µM ([2]; Well no.=4830) was 97.8%. The remaining activity at 3.75 µM ([2]; Well no.=8253) was 90.3%.

Molecule COCCc1ccc(OCC(O)CNC(C)C)cc1 (stereo not drawn) [Metoprolol (Succinate)] has a remaining activity at 1.25 µM ([1]; Well no.=7475) of 94.3% and a remaining activity at 3.75 µM ([2]; Well no.=7475) of 95.9%.

In the case of COc1ccc2cc(-c3nc(-c4ccc([S+](C)[O-])cc4)[nH]c3-c3ccncc3)ccc2c1 (stereo not drawn) [Tie2 kinase inhibitor], the remaining activity at 1.25 µM ([1]; Well no.=4965) is reported as 91% and the remaining activity at 3.75 µM ([2]; Well no.=4965) is reported as 90.7%.

Work on CN1CCN(C2=Nc3ccccc3Oc3ccc(Cl)cc32)CC1 [Loxapine succinate] yielded a remaining activity at 1.25 µM ([1]; Well no.=1125) of 93.3% and a remaining activity at 3.75 µM ([2]; Well no.=1125) of 89.7%.

C[N+](C)(C)CCC(=O)c1cccc2ccccc12 [2-(alpha-Naphthoyl)ethyltrimethylammonium iodide] was tested, and the remaining activity at 1.25 µM ([1]; Well no.=1051) was 96.5% and the remaining activity at 3.75 µM ([2]; Well no.=1051) was 103%.

CN(C)C(=O)N=NC(=O)N(C)C [N,N,N',N'-Tetramethylazodicarboxamide] gave a remaining activity at 1.25 µM ([1]; Well no.=735) of 94.9% and a remaining activity at 3.75 µM ([2]; Well no.=735) of 98.5%.

Molecule CCCCC[C@@H](O)/C=C/[C@H]1[C@H](C/C=C\CCCC(=O)O)[C@@H](O)C[C@@H]1O [9b,11a Prostaglandin F2] has a remaining activity at 1.25 µM ([1]; Well no.=4521) of 101% and a remaining activity at 3.75 µM ([2]; Well no.=4521) of 103%.

Work on Cc1cnc(C(=O)O)c[n+]1[O-] [Acipimox] yielded a remaining activity at 1.25 µM ([1]; Well no.=2069) of 102% and a remaining activity at 3.75 µM ([2]; Well no.=2069) of 104%.

Work on CC(C)[C@H](CO)Nc1nc(Nc2cc(N)cc(Cl)c2)c2ncn(C(C)C)c2n1 [Aminopurvalanol A] yielded a remaining activity at 1.25 µM ([1]; Well no.=2322) of 97.1% and a remaining activity at 3.75 µM ([2]; Well no.=2322) of 97.4%.

NCCCCN [Putrescine dihydrochloride] showed a remaining activity at 1.25 µM ([1]; Well no.=1205) of 103% and a remaining activity at 3.75 µM ([2]; Well no.=1205) of 102%.

With CC(C)(C)NCC(O)c1cc(O)cc(O)c1 (stereo not drawn) [Terbutaline hemisulfate] the remaining activity at 1.25 µM ([1]; Well no.=1189) was 98.5% and the remaining activity at 3.75 µM ([2]; Well no.=1189) was 100%.

Work on CC1=CC(=O)C2=C(C)C[C@H](O)[C@@H]3[C@H](OC(=O)[C@H]3C)[C@@H]12 [Austricin] yielded a remaining activity at 1.25 µM ([1]; Well no.=3105) of 102% and a remaining activity at 3.75 µM ([2]; Well no.=3105) of 105%.

In the case of C#CC(N)CCC(=O)O (stereo not drawn) [gamma-Acetylinic GABA], the remaining activity at 1.25 µM ([1]; Well no.=258) is reported as 94% and the remaining activity at 3.75 µM ([2]; Well no.=258) is reported as 94.8%.

Molecule CCCCCCCC/C=C\CCCCCCCCCC(=O)O [11(Z)-Eicosenoic acid] has a remaining activity at 1.25 µM ([1]; Well no.=4406) of 96.4% and a remaining activity at 3.75 µM ([2]; Well no.=4406) of 93.7%.

CC1(C)CCC[C@](C)([C@H]2CC[C@]3(C)[C@@H]2[C@H](O)C[C@@H]2[C@@]4(C)CC[C@H](O)C(C)(C)[C@@H]4CC[C@]23C)O1 [Panaxadiol] gave a remaining activity at 1.25 µM ([1]; Well no.=3739) of 100% and a remaining activity at 3.75 µM ([2]; Well no.=3739) of 99.1%.

For N#Cc1ccc([C@H]2CCc3cncn32)c(F)c1 [LCI699], the remaining activity at 1.25 µM ([1]; Well no.=8526) was 98.2% and the remaining activity at 3.75 µM ([2]; Well no.=8526) was 98.2%.

O=C(Nc1ccc(Cl)cc1CN1C(=O)c2ccccc2C1=O)c1ccccc1O [CPPHA] was tested, and the remaining activity at 1.25 µM ([1]; Well no.=7243) was 101% and the remaining activity at 3.75 µM ([2]; Well no.=7243) was 97.3%.

Cc1ncc(C[n+]2csc(CCO)c2C)c(N)n1 [Thiamine HCl (Vitamin B1)] was tested, and the remaining activity at 1.25 µM ([1]; Well no.=4638) was 94.5% and the remaining activity at 3.75 µM ([2]; Well no.=4638) was 96.6%.

CN1CCN(CCc2ccc(Cl)c(Cl)c2)CC1 [BD1063 (dhydrochloride)] was tested, and the remaining activity at 1.25 µM ([1]; Well no.=8057) was 90.2% and the remaining activity at 3.75 µM ([2]; Well no.=8057) was 95.3%.

O=C(O)CCCCCCC(=O)O [Octanedioic acid] showed a remaining activity at 1.25 µM ([1]; Well no.=6931) of 108% and a remaining activity at 3.75 µM ([2]; Well no.=6931) of 103%.

CCCOC(=O)c1c(-c2ccccc2)nc(CC)c(C(=O)SCC)c1CCC [MRS 1523] showed a remaining activity at 1.25 µM ([1]; Well no.=1064) of 95.3% and a remaining activity at 3.75 µM ([2]; Well no.=1064) of 94.2%.

Work on CCOC(=O)c1c(C)[nH]c(/C=C2\C(=O)Nc3ccccc32)c1C [VEGF Receptor 2 Kinase Inhibitor I] yielded a remaining activity at 1.25 µM ([1]; Well no.=2645) of 97.1% and a remaining activity at 3.75 µM ([2]; Well no.=2645) of 102%.

CCCCCCCCCCCC(=O)O [Lauric acid] was tested, and the remaining activity at 1.25 µM ([1]; Well no.=7169) was 96.8% and the remaining activity at 3.75 µM ([2]; Well no.=7169) was 98.4%.

Work on O=c1oc2ccccc2c(O)c1Cc1c(O)c2ccccc2oc1=O [Dicoumarol] yielded a remaining activity at 1.25 µM ([1]; Well no.=3547) of 104% and a remaining activity at 3.75 µM ([2]; Well no.=3547) of 105%.

CCCC[C@@H](C=O)NC(=O)[C@H](CC(C)C)NC(=O)[C@H](CC(C)C)NC(C)=O [(2S)-2-(acetylamino)-N-[(1S)-1-({[(1S)-1-formylpentyl]amino}carbonyl)-3-methylbutyl]-4-methylpentanamide] (Ac-Leu-Leu-[Nle]-aldehyde) was tested, and the remaining activity at 1.25 µM ([1]; Well no.=5774) was 95.7% and the remaining activity at 3.75 µM ([2]; Well no.=5774) was 95.3%.

Molecule Cc1cc(Nc2nc(N[C@@H](C)c3ccc(F)cc3)c(C#N)cc2F)n[nH]1 [AZ-960] has a remaining activity at 1.25 µM ([1]; Well no.=2980) of 93.6% and a remaining activity at 3.75 µM ([2]; Well no.=2980) of 92.7%.
